Paper PMC11125357, “Assessment of Anticancer Properties of Argemone mexicana L. and Berberine: A Comparative Study” (Plants, 2024)
“And” between values parts separate entries of the source, which are not always exact repeats. Equal entries are not always repeated. “Also recorded” adds a separate entry of the source. Marks after values point to notes of the source that are not given here.

Tests used:
DPPH scavenging test = details: 50% decrease of DPPH, 517 nm, mean ± SD
Procedure: (§1) The antioxidant activity was determined by the DPPH, ABTS radical scavenging, and FRAP (Ferric Reducing Antioxidant Power) methods. In the DPPH and ABTS assays, Vitamin C served as the positive control. In all treatment evaluations, the concentrations ranged from 15.63, 31.25, 62.50, […], 250, 500, and 1000 µg/mL.
The antioxidant activity was assessed using the DPPH radical assay, where the antioxidant activity (free radical scavenging capacity) was quantified as IC50 in µg/mL. […] The DPPH radical scavenging assay was conducted in a 96-well flat-bottom plastic microplate (Corning®). The percentage inhibition of DPPH at 517 nm was determined using a UV/VIS spectrophotometer and calculated using Formula (7) as follows:(7) DPPH scavenging %=Abs517 Control−Abs517 Sample/Abs517 Control×100

ABTS scavenging test = details: 50% decrease of ABTS radical, 734 nm, mean ± SD
Procedure: as §1
The antioxidant activity was determined using the ABTS radical scavenging method, where the antioxidant activity (free radical scavenging capacity) was quantified as IC50 in µg/mL. […] The ABTS radical scavenging assay was conducted in 96-well plastic microplates (Corning®), and the percentage inhibition of ABTS at 734 nm was calculated using Formula (8) as follows:(8) ABTS scavenging %=Abs734nm Control−Abs734 Sample/Abs734nm Control×100

[1] = tested on: VERO (monkey kidney epithelial) non-tumoral cells; experiment: MTT cell viability assay in VERO cells; type: cell-based, African green monkey; details: Primates, 72 h of incubation, mean ± SD
Procedure: (§2) The HEP-G2 cancer cell line and the normal VERO cell line were cultured in DMEM supplemented with 10% FBS, 2% NaHCO3, and HEPES. All tests performed with these cells were carried out in 96-well flat-bottom plastic microplates (Corning® Labware and Equipment, Oneonta, NY, USA) due to the adherent nature of these cells. L5178Y-R cells and PBMC were maintained in RPMI-1640 culture medium supplemented with 10% FBS and 1% antibiotic/antimycotic solution. All the tests performed with these cells were carried out in 96-well curved-bottom plastic microplates (Corning®) because these cells are non-adherent.
(§3) Prior to the application of the treatments, the cells were incubated at 37 °C in a humidified incubator (Sanyo MCO-19AIC CO2 Incubator, Sanyo Electric Co., Ltd., Gunma-ken, Japan) with 5% CO2 for 24 h for adaptation. The cell viability was determined by MTT assay; MTT color intensity was directly associated with the number of living cells after 72 h of incubation. Mitochondrial enzymes, specifically succinate dehydrogenase, reduce MTT tetrazolium salt to form formazan; this reaction produces a purple–blue product that can be measured using spectrophotometry since the in vitro cell viability can be tested using the MTT colorimetric assay. Therefore, we decided to perform an MTT assay to correlate mitochondrial activity with viability. […]

[2] = tested on: HEP-G2 (human hepatocellular carcinoma) cells; experiment: MTT cell viability assay in HEP-G2 cells; type: cell-based; details: HepG2, 72 h of incubation, mean ± SD
Procedure: as §2
(§4) Prior to the application of the treatments, the cells were incubated at 37 °C in a humidified incubator (Sanyo MCO-19AIC CO2 Incubator, Sanyo Electric Co., Ltd., Gunma-ken, Japan) with 5% CO2 for 24 h for adaptation. The cell viability was determined by MTT assay; MTT color intensity was directly associated with the number of living cells after 72 h of incubation. Mitochondrial enzymes, specifically succinate dehydrogenase, reduce MTT tetrazolium salt to form formazan; this reaction produces a purple–blue product that can be measured using spectrophotometry since the in vitro cell viability can be tested using the MTT colorimetric assay.

[3] = tested on: PBMC (human peripheral blood mononuclear) cells; experiment: MTT cell viability assay in PBMC; type: cell-based; details: 72 h of incubation, mean ± SD
Procedure: as §2, §3

[4] = tested on: murine lymphoma (L5178Y-R) cells; experiment: MTT cell viability assay in L5178Y-R cells; type: cell-based; details: Mus musculus, L5178, 72 h of incubation, mean ± SD, read-out: IC50 (µg/mL) in Cells, L5178 Y-R
Procedure: as §2, §4

Hemolytic test = type: cell-based; details: human red blood cells (erythrocytes), pH 7.2; concentration causing 50% hemolysis of human red blood cells, mean ± SD
Procedure: The hemolytic activity was assessed using the hemolysis test. Treatments evaluated were prepared in PBS (pH 7.2 ± 0.2) in concentrations ranging from 10, 100, 200, 400, 600, 800, 1000, and 2000 µg/mL; the percent (%) of hemolysis was determined by measuring the Abs at 540 nm for each treatment.

[5] = tested on: human erythrocytes, AAPH-induced hemolysis; experiment: Anti-hemolytic test by the AAPH assay; type: cell-based; details: Erythrocyte; protection against AAPH radical (150 mM) in human erythrocytes, mean ± SD
Procedure: The AAPH inhibition test, as previously reported, was used to determine the anti-hemolytic activity. Hemolysis was induced by the AAPH radical (150 mM, prepared in PBS) as a positive control. The concentrations of the treatments were the same as in the hemolysis assay plus the AAPH.

Artemia salina nauplii = experiment: Lethality in Artemia salina; type: in vivo; details: 24 h of exposure, mean ± SD
Procedure: Artificial seawater was prepared using 20 g of sea salt and 6 mg of brewer’s yeast dissolved in 500 mL of distilled H2O (pH 7.8). Prior to the assay, the artificial seawater was conditioned by supplying air with an aquarium pump for 24 h. For the hatching of A. salina nauplii, a rectangular glass container (17 × 14 × 7 cm) was adapted, with a dark section where the cysts were incubated and an illuminated area that allows only hatched nauplii to be obtained by means of phototropism. After an incubation period of 48 h under room temperature conditions of 25 ± 2.0 °C (aeration and constant light), the test was carried out using 96-well transparent plastic microplates with a concave bottom (Corning®), in which 20 nauplii and different concentrations of the treatments (10, 100, 200, 400, 600, 800, 1000, and 2000 µg/mL) were deposited in a final volume of 200 µL per well [46]. […] Counting of live and dead larvae in each well of the microplate was performed with the use of a stereoscope microscope. […] A. salina nauplii viability was determined by Formula (6) as follows:(6) A. salina Viability %= Survival Treatment Count/ Survival Control Count×100

[6] = tested on: murine macrophages (J774A.1 cell line); experiment: Nitric oxide production (Griess reagent); type: cell-based
Procedure: The macrophage cultures were incubated in triplicate in 25 cm^2 tissue culture flasks (Corning Glass Works, Corning®, Oneonta, NY, USA) in a total volume of 7 mL of RPMI-1640 culture medium supplemented with 10% FBS and 1% antibiotic/antimycotic solution and maintained at 37 °C in 5% CO2. A concentration of 200 ng/mL of E. coli O26:B6 LPS served as an inflammatory-inducing agent to stimulate NO production. NO production was assessed by measuring nitrite accumulation in the supernatant using Griess reagent. A standard curve was generated using NaNO2 (1 M) to interpret the test results.

Row | Compound | DPPH IC50 (DPPH scavenging test) | ABTS IC50 (ABTS scavenging test) | IC50 [1] [µg/mL] | IC50 [2] [µg/mL] | IC50 [3] [µg/mL] | IC50 [4] [µg/mL] | IC50 (Hemolytic test) [µg/mL] | IC50 [5] [µg/mL] | A. salina LD50 (Artemia salina nauplii) | activity in response to NO production ([6]; 0.98 to 500 µg/mL) | NO production in macrophages compared to LPS ([6]; 0.5 h, 0.00–500 µg/mL) | NO production in macrophages compared to LPS ([6]; 4 h, 0.00–31.25 µg/mL) | NO production in macrophages compared to LPS ([6]; 4 h, 62.50–250 µg/mL) | NO production in macrophages compared to LPS ([6]; 4 h, 500–1000 µg/mL) | NO production in macrophages compared to LPS ([6]; 24 h, 0.00–500 µg/mL) | NO production in macrophages compared to LPS ([6]; BER at 1000 µg/mL, 0.5, 4 and 24 h)
1 | O=C1O[C@H]([C@@H](O)CO)C(O)=C1O [Vitamin C, ascorbic acid] | 68.90 ± 3.11 ^b µg/mL | 81.76 ± 6.30 ^b µg/mL | – | – | – | – | – | – | – | – | – | – | – | – | – | –
2 | COc1ccc2cc3[n+](cc2c1OC)CCc1cc2c(cc1-3)OCO2 [BER, 16,17-dimethoxy-5,7-dioxa-13-azoniapentacyclo [11.8.0.0^2,10.0^4,8.0^15,20]henicosa-1(13),2,4(8),9,14,16,18,20-octaene] | 44.80 ± 1.22 ^a,* µg/mL | 40.29 ± 9.02 ^a,* µg/mL | 908 ± 31.9 | 56.9 ± 9.45 | 27.1 ± 7.16 | < 5 | 713 ± 38 | 36.9 ± 5.49 | 178.00 µg/mL and 178.00 ± 29.70 ^b,** µg/mL | immunomodulatory activity | no significant increase in NO production | no increase in NO production | behaved in the same way as LPS | increase in NO production greater than that of LPS | no increase in ON production | increased NO production; also recorded: significantly greater effect on NO production compared to LPS
